US9717727B2, “Methods of treating and preventing leukemia and other cancers of the blood and bone” (The Trustees of Columbia University in the City of New York, priority 2011, dated 2017)
“Also recorded” adds a separate entry of the source. Read-outs that look alike come from different tables or passages of the source.

Columns and labels:
serotonin = conditions: six consecutive doses, cited from earlier work
[1] = system: myeloid or the lymphoblastic leukemia cells; assay: Serotonin treatment of leukemia cells, proliferation or survival; assay type: cell-based
Method: (§1) EL4 cells and WEH-3B cells, as described in Example 2, were treated with either LP-533401 or serotonin LP-533401 treatments were performed at 0.1 to 1-fold the amount equivalent to the LP-533401 serum concentration in mice treated with this compound. Serotonin was given at concentrations ranging from 25 to 100 μM, doses at which it affects the proliferation of cells expressing serotonin receptors (Kode et al. (2012); Yadav et al. (2008) Serafeim et al. (2003)).

EL4 cells = assay: Injection of EL4 cells pre-treated with LP-533401 or serotonin into syngeneic mice (Example 13); assay type: in vivo; conditions: cells treated before injection; LP-533401 0.1 to 1-fold serum concentration, serotonin 25 to 100 μM
Method: as §1
EL4 cells treated with LP-533401 or serotonin were then injected into syngeneic mice as described in Example 2 to monitor leukemia engraftment, as commonly described for evaluating potential direct effects of compounds on leukemia cells (Moellering et al. (2009)).

Row | SMILES | serotonin levels in the small intestine lowered (serotonin; 30 mg/kg twice per day) | serotonin levels in the small intestine lowered (serotonin; 90 mg/kg twice per day) | brain-derived serotonin (serotonin; 30 or 90 mg/kg twice per day) | proliferation or survival of leukemia cells [1] | leukemia outcome (burden and lethality) after injection of pre-treated EL4 cells (EL4 cells)
1 | CCOC(=O)[C@@H](N)Cc1ccc(-c2cc(OC(c3ccc(-c4cccc(F)c4)cc3)C(F)(F)F)nc(N)n2)cc1 (some centres unmarked) [LP-615819] | 55% | 70% | unchanged |  | 
2 | NCCc1c[nH]c2ccc(O)cc12 [serotonin, 5-hydroxytryptamine] |  |  |  | no effect | neither implantation of serotonin-treated leukemia cells affected leukemia progression; also recorded: neither of the two treatments altered leukemia outcome
